From ChEMBL document CHEMBL4831516, “Development of Membrane-Active Honokiol/Magnolol Amphiphiles as Potent Antibacterial Agents against Methicillin-Resistant Staphylococcus aureus (MRSA)” (J Med Chem, 2021)
In brackets after ≈: the same amount, converted by molar mass.

What was measured:
Salmonella enterica [1] = test: Antibacterial activity against Salmonella enterica 8389 assessed as inhibition of visible growth incubated for 16 to 18 hrs by CLSI method; type: functional; conditions: time 16-18 hrs, read-out: MIC100
Micrococcus luteus = test: Antibacterial activity against Micrococcus luteus assessed as inhibition of visible growth incubated for 16 to 18 hrs by CLSI method; type: functional; conditions: time 16-18 hrs, read-out: MIC100
Bacillus subtilis = test: Antibacterial activity against Bacillus subtilis assessed as inhibition of visible growth incubated for 16 to 18 hrs by CLSI method; type: functional; conditions: time 16-18 hrs, read-out: MIC100
Salmonella enterica [2] = test: Antibacterial activity against Salmonella enterica 349812 assessed as inhibition of visible growth incubated for 16 to 18 hrs by CLSI method; type: functional; conditions: time 16-18 hrs, read-out: MIC100
Escherichia coli = test: Antibacterial activity against Escherichia coli ATCC25922 assessed as inhibition of visible growth incubated for 16 to 18 hrs by CLSI method; type: functional; conditions: time 16-18 hrs, read-out: MIC100
[3] = tested on: Stenotrophomonas maltophilia; test: Antibacterial activity against Stenotrophomonas maltophilia assessed as inhibition of visible growth incubated for 16 to 18 hrs by CLSI method; type: functional; conditions: time 16-18 hrs, read-out: MIC100
[4] = Hemolytic activity in sheep RBC assessed as hemolysis incubated for 1 hr; type: ADME, cell-based, Ovis aries, Erythrocyte; conditions: sheep red blood cells (erythrocytes)
Enterococcus faecalis = test: Antibacterial activity against Enterococcus faecalis ATCC29212 assessed as inhibition of visible growth incubated for 16 to 18 hrs by CLSI method; type: functional; conditions: time 16-18 hrs, read-out: MIC100
Staphylococcus aureus [5] = test: Antibacterial activity against Staphylococcus aureus ATCC29213 assessed as inhibition of visible growth incubated for 16 to 18 hrs by CLSI method; type: functional; conditions: time 16-18 hrs, read-out: MIC100
Staphylococcus aureus [6] = test: Antibacterial activity against methicillin-resistant Staphylococcus aureus clinical isolate M-14 assessed as inhibition of visible growth incubated for 16 to 18 hrs by CLSI method; type: functional; conditions: time 16-18 hrs, read-out: MIC100
[7] = Selectivity index, HC50 for hemolytic activity in sheep RBC to MIC for antibacterial activity against Staphylococcus aureus ATCC29213; type: toxicity; conditions: sheep red blood cells (erythrocytes), read-out: Selectivity Index
Staphylococcus aureus [8] = test: Antibacterial activity against methicillin-resistant Staphylococcus aureus clinical isolate M-18 assessed as inhibition of visible growth incubated for 16 to 18 hrs by CLSI method; type: functional; conditions: time 16-18 hrs, read-out: MIC100
Staphylococcus aureus [9] = test: Antibacterial activity against methicillin-resistant Staphylococcus aureus clinical isolate M-19 assessed as inhibition of visible growth incubated for 16 to 18 hrs by CLSI method; type: functional; conditions: time 16-18 hrs, read-out: MIC100
Staphylococcus aureus [10] = test: Antibacterial activity against methicillin-resistant Staphylococcus aureus clinical isolate M-13 assessed as inhibition of visible growth incubated for 16 to 18 hrs by CLSI method; type: functional; conditions: time 16-18 hrs, read-out: MIC100
Staphylococcus aureus [11] = test: Antibacterial activity against methicillin-resistant Staphylococcus aureus clinical isolate M-15 assessed as inhibition of visible growth incubated for 16 to 18 hrs by CLSI method; type: functional; conditions: time 16-18 hrs, read-out: MIC100
Staphylococcus aureus [12] = test: Antibacterial activity against methicillin-resistant Staphylococcus aureus clinical isolate M-16 assessed as inhibition of visible growth incubated for 16 to 18 hrs by CLSI method; type: functional; conditions: time 16-18 hrs, read-out: MIC100
Staphylococcus aureus [13] = test: Antibacterial activity against methicillin-resistant Staphylococcus aureus clinical isolate M-12 assessed as inhibition of visible growth incubated for 16 to 18 hrs by CLSI method; type: functional; conditions: time 16-18 hrs, read-out: MIC100
Staphylococcus aureus [14] = test: Antibacterial activity against methicillin-resistant Staphylococcus aureus clinical isolate M-20 assessed as inhibition of visible growth incubated for 16 to 18 hrs by CLSI method; type: functional; conditions: time 16-18 hrs, read-out: MIC100
Staphylococcus aureus [15] = test: Antibacterial activity against methicillin-resistant Staphylococcus aureus clinical isolate M-17 assessed as inhibition of visible growth incubated for 16 to 18 hrs by CLSI method; type: functional; conditions: time 16-18 hrs, read-out: MIC100
Staphylococcus aureus [16] = test: Antibacterial activity against methicillin-resistant Staphylococcus aureus clinical isolate M-11 assessed as inhibition of visible growth incubated for 16 to 18 hrs by CLSI method; type: functional; conditions: time 16-18 hrs, read-out: MIC100

In the case of `C=CCc1ccc(O)c(-c2cc(CC=C)ccc2O)c1` [MAGNOLOL], the MIC (Salmonella enterica [1]) was > 128 µg/mL, the MIC (Micrococcus luteus) was 16 µg/mL (≈ 60.1 µM) and the MIC (Bacillus subtilis) was 16 µg/mL (≈ 60.1 µM). The MIC (Salmonella enterica [2]) was > 128 µg/mL, the MIC (Escherichia coli) was > 128 µg/mL and the MIC [3] was > 128 µg/mL. The HC50 at 1 h [4] was 463 µg/mL, the MIC (Enterococcus faecalis) was 64 µg/mL (≈ 240 µM) and the MIC (Staphylococcus aureus [5]) was 32 µg/mL (≈ 120 µM).
`C=CCc1ccc(OCC[N+](C)(C)CC(=O)NCCCC)c(-c2ccc(OCC[N+](C)(C)CC(=O)NCCCC)c(CC=C)c2)c1.[Br-].[Br-]` gave an MIC (Salmonella enterica [1]) of 32 µg/mL, an MIC (Micrococcus luteus) of 4 µg/mL and an MIC (Staphylococcus aureus [6]) of 4 µg/mL. The selectivity ratio [7] was 208, the MIC (Staphylococcus aureus [8]) was 4 µg/mL and the MIC (Staphylococcus aureus [9]) was 4 µg/mL. The MIC (Bacillus subtilis) was 2 µg/mL, the MIC (Staphylococcus aureus [10]) was 4 µg/mL and the MIC (Staphylococcus aureus [11]) was 8 µg/mL. It also gave an MIC (Salmonella enterica [2]) of 64 µg/mL, an MIC (Escherichia coli) of 64 µg/mL and an MIC (Staphylococcus aureus [12]) of 8 µg/mL. It also gave an MIC [3] of 32 µg/mL, an MIC (Staphylococcus aureus [13]) of 4 µg/mL and an MIC (Staphylococcus aureus [14]) of 8 µg/mL. The HC50 at 1 h [4] was 832 µg/mL, the MIC (Enterococcus faecalis) was 8 µg/mL and the MIC (Staphylococcus aureus [15]) was 8 µg/mL. The MIC (Staphylococcus aureus [16]) was 4 µg/mL and the MIC (Staphylococcus aureus [5]) was 4 µg/mL.
In the case of `CN[C@H](CC(C)C)C(=O)N[C@H]1C(=O)N[C@@H](CC(N)=O)C(=O)N[C@H]2C(=O)N[C@H]3C(=O)N[C@H](C(=O)N[C@H](C(=O)O)c4cc(O)cc(O)c4-c4cc3ccc4O)[C@H](O)c3ccc(c(Cl)c3)Oc3cc2cc(c3O[C@@H]2O[C@H](CO)[C@@H](O)[C@H](O)[C@H]2O[C@H]2C[C@](C)(N)[C@H](O)[C@H](C)O2)Oc2ccc(cc2Cl)[C@H]1O` [VANCOMYCIN], the MIC (Micrococcus luteus) was 0.5 µg/mL (≈ 0.345 µM), the MIC (Bacillus subtilis) was 0.25 µg/mL (≈ 0.173 µM) and the MIC (Enterococcus faecalis) was 2 µg/mL (≈ 1.38 µM).
Molecule `C=CCc1ccc(OCC[N+](C)(C)CC(=O)N(CCCC)CCCC)c(-c2ccc(OCC[N+](C)(C)CC(=O)N(CCCC)CCCC)c(CC=C)c2)c1.[Br-].[Br-]` has an MIC (Salmonella enterica [1]) of 32 µg/mL, an MIC (Micrococcus luteus) of 4 µg/mL and an MIC (Staphylococcus aureus [6]) of 4 µg/mL. The selectivity ratio [7] was > 320, the MIC (Staphylococcus aureus [8]) was 8 µg/mL and the MIC (Staphylococcus aureus [9]) was 8 µg/mL. It also gave an MIC (Bacillus subtilis) of 4 µg/mL, an MIC (Staphylococcus aureus [10]) of 4 µg/mL and an MIC (Staphylococcus aureus [11]) of 2 µg/mL. For the same molecule, the MIC (Salmonella enterica [2]) was 32 µg/mL, the MIC (Escherichia coli) was 16 µg/mL and the MIC (Staphylococcus aureus [12]) was 2 µg/mL. It also gave an MIC [3] of 32 µg/mL, an MIC (Staphylococcus aureus [13]) of 4 µg/mL and an MIC (Staphylococcus aureus [14]) of 8 µg/mL. For the same molecule, the HC50 at 1 h [4] was > 1280 µg/mL, the MIC (Enterococcus faecalis) was 2 µg/mL and the MIC (Staphylococcus aureus [15]) was 2 µg/mL. It also gave an MIC (Staphylococcus aureus [16]) of 4 µg/mL and an MIC (Staphylococcus aureus [5]) of 4 µg/mL.
Work on `C=CCc1ccc(OCCCC[N+](C)(C)CC(=O)NCCCCCC)c(-c2ccc(OCCCC[N+](C)(C)CC(=O)NCCCCCC)c(CC=C)c2)c1.[Br-].[Br-]` yielded an MIC (Salmonella enterica [1]) of 8 µg/mL, an MIC (Micrococcus luteus) of 2 µg/mL and an MIC (Staphylococcus aureus [6]) of 8 µg/mL. It also gave a selectivity ratio [7] of 143, an MIC (Staphylococcus aureus [8]) of 4 µg/mL and an MIC (Staphylococcus aureus [9]) of 4 µg/mL. For the same molecule, the MIC (Bacillus subtilis) was 4 µg/mL, the MIC (Staphylococcus aureus [10]) was 2 µg/mL and the MIC (Staphylococcus aureus [11]) was 8 µg/mL. The MIC (Salmonella enterica [2]) was 16 µg/mL, the MIC (Escherichia coli) was 16 µg/mL and the MIC (Staphylococcus aureus [12]) was 8 µg/mL. It also gave an MIC [3] of 8 µg/mL, an MIC (Staphylococcus aureus [13]) of 2 µg/mL and an MIC (Staphylococcus aureus [14]) of 4 µg/mL. For the same molecule, the HC50 at 1 h [4] was 573 µg/mL, the MIC (Enterococcus faecalis) was 2 µg/mL and the MIC (Staphylococcus aureus [15]) was 4 µg/mL. The MIC (Staphylococcus aureus [16]) was 2 µg/mL and the MIC (Staphylococcus aureus [5]) was 4 µg/mL.
Work on `C=CCc1ccc(OCCC[N+](C)(C)CC(=O)NCCCCC)c(-c2ccc(OCCC[N+](C)(C)CC(=O)NCCCCC)c(CC=C)c2)c1.[Br-].[Br-]` yielded an MIC (Salmonella enterica [1]) of 8 µg/mL, an MIC (Micrococcus luteus) of 4 µg/mL and an MIC (Staphylococcus aureus [6]) of 4 µg/mL. For the same molecule, the selectivity ratio [7] was 546, the MIC (Staphylococcus aureus [8]) was 2 µg/mL and the MIC (Staphylococcus aureus [9]) was 2 µg/mL. For the same molecule, the MIC (Bacillus subtilis) was 8 µg/mL, the MIC (Staphylococcus aureus [10]) was 4 µg/mL and the MIC (Staphylococcus aureus [11]) was 2 µg/mL. For the same molecule, the MIC (Salmonella enterica [2]) was 8 µg/mL, the MIC (Escherichia coli) was 16 µg/mL and the MIC (Staphylococcus aureus [12]) was 2 µg/mL. It also gave an MIC [3] of 16 µg/mL, an MIC (Staphylococcus aureus [13]) of 2 µg/mL and an MIC (Staphylococcus aureus [14]) of 4 µg/mL. It also gave an HC50 at 1 h [4] of 1090 µg/mL, an MIC (Enterococcus faecalis) of 4 µg/mL and an MIC (Staphylococcus aureus [15]) of 2 µg/mL. For the same molecule, the MIC (Staphylococcus aureus [16]) was 4 µg/mL and the MIC (Staphylococcus aureus [5]) was 2 µg/mL.
In the case of `C=CCc1ccc(O)c(-c2cc(CC=C)ccc2OCCC[N+](C)(C)CC(=O)NCCCC)c1.[Br-]`, the MIC (Salmonella enterica [1]) was 32 µg/mL, the MIC (Micrococcus luteus) was 1 µg/mL and the MIC (Staphylococcus aureus [6]) was 4 µg/mL. For the same molecule, the selectivity ratio [7] was 298, the MIC (Staphylococcus aureus [8]) was 4 µg/mL and the MIC (Staphylococcus aureus [9]) was 4 µg/mL. The MIC (Bacillus subtilis) was 1 µg/mL, the MIC (Staphylococcus aureus [10]) was 4 µg/mL and the MIC (Staphylococcus aureus [11]) was 4 µg/mL. For the same molecule, the MIC (Salmonella enterica [2]) was 32 µg/mL, the MIC (Escherichia coli) was 8 µg/mL and the MIC (Staphylococcus aureus [12]) was 4 µg/mL. For the same molecule, the MIC [3] was 32 µg/mL, the MIC (Staphylococcus aureus [13]) was 4 µg/mL and the MIC (Staphylococcus aureus [14]) was 4 µg/mL. It also gave an HC50 at 1 h [4] of 596 µg/mL, an MIC (Enterococcus faecalis) of 4 µg/mL and an MIC (Staphylococcus aureus [15]) of 4 µg/mL. It also gave an MIC (Staphylococcus aureus [16]) of 8 µg/mL and an MIC (Staphylococcus aureus [5]) of 2 µg/mL.
In the case of `C[C@H]1COc2c(N3CCN(C)CC3)c(F)cc3c(=O)c(C(=O)O)cn1c23.C[C@H]1COc2c(N3CCN(C)CC3)c(F)cc3c(=O)c(C(=O)O)cn1c23.O` [LEVOFLOXACIN], the MIC (Salmonella enterica [1]) was 0.25 µg/mL, the MIC (Micrococcus luteus) was 0.25 µg/mL and the MIC (Staphylococcus aureus [6]) was 1 µg/mL. It also gave an MIC (Staphylococcus aureus [8]) of 0.5 µg/mL, an MIC (Staphylococcus aureus [9]) of 1 µg/mL and an MIC (Bacillus subtilis) of 0.5 µg/mL. It also gave an MIC (Staphylococcus aureus [10]) of 5 µg/mL, an MIC (Staphylococcus aureus [11]) of 1 µg/mL and an MIC (Salmonella enterica [2]) of 0.25 µg/mL. For the same molecule, the MIC (Staphylococcus aureus [12]) was 1 µg/mL, the MIC [3] was 0.5 µg/mL and the MIC (Staphylococcus aureus [13]) was 1 µg/mL. The MIC (Staphylococcus aureus [14]) was 1 µg/mL, the MIC (Enterococcus faecalis) was 0.25 µg/mL and the MIC (Staphylococcus aureus [15]) was 5 µg/mL. It also gave an MIC (Staphylococcus aureus [16]) of 1 µg/mL and an MIC (Staphylococcus aureus [5]) of 0.5 µg/mL.
